Data from the NIST ThermoML archive (doi:10.1016/j.jct.2015.08.006).
± gives the expanded uncertainty stated by the source.

Details: 298.44 K, Pendant drop shape

- surface tension liquid-gas: 71.9 ± 0.6 mN/m
SMILES: O [water]
